From patent publication US20240018146A1, “COMPOSITIONS AND METHODS OF USING THE SAME FOR TREATMENT OF NEURODEGENERATIVE AND MITOCHONDRIAL DISEASE” (MITOKININ, INC., priority 2020, published 2024)

Assays:
HeLa MKYP cells [1] = experiment: Human mitophagy assay (HeLa mKeima assay, FACS); format: cell-based; details: Homo sapiens, HeLa; read-out: Mitophagy induction EC50
Summary of the method: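 HeLa cells carrying the pH-sensitive mtKeima tag incubated 16 h with compound at several concentrations, then 1 uM FCCP/oligomycin for 6 h. FACS detects mitochondria in lysosomes through the Keima emission shift, quantified as percentage of cells in mitophagy.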

HeLa MKYP cells [2] = experiment: Cell death measured by DAPI staining, with 1 μM FCCP/oligomycin or no toxin (no FO); format: cell-based
Summary of the method: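 HeLa MKYP cells were treated with compounds alongside 1 μM FCCP/oligomycin or no toxin for 6 or 6.5 h. Cell death was scored by DAPI staining, with H2O2 treatment as the death control.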

| SMILES | EC50 (HeLa MKYP cells [1]) | Highest safe dose (cytotoxicity; no FO; safe means DAPI+ <20%) (HeLa MKYP cells [2]) | Max % death with 1 μM FO (HeLa MKYP cells [2]) |
| --- | --- | --- | --- |
| FC(F)(F)c1cc2c(N[C@H]3c4ccccc4CC[C@H]3C3CCOCC3)ncnc2[nH]1 [EP-0040557] | > 25 µM | 25.0 µM | 2.7% |
| FC(F)(F)c1cc2c(N[C@@H]3c4ccccc4CC[C@@H]3C3CCOCC3)ncnc2[nH]1 [EP-0040558] | > 25 µM | 25.0 µM | 3.0% |
| FC(F)(F)c1cc2c(N[C@H]3c4ccccc4OC[C@H]3C3CCOCC3)ncnc2[nH]1 [EP-0040586] | > 25 µM | 8.3 µM | 16.9% |
| FC(F)(F)c1cc2c(NC3c4ccccc4CCC3N3CCC4(CCOC4)CC3)ncnc2[nH]1 (stereo not drawn) [EP-0040589] | > 25 µM | 25.0 µM | 19.4% |
| c1ccc2c(c1)CC[C@@H](C1CCOCC1)[C@H]2Nc1ncnc2[nH]c(C3CC3)cc12 [EP-0040626] | 7.11 µM | 25.0 µM | 29.3% |
| c1ccc2c(c1)CC[C@H](C1CCOCC1)[C@@H]2Nc1ncnc2[nH]c(C3CC3)cc12 [EP-0040627] | 24.4 µM | 25.0 µM | 4.8% |
| [O-][S+]1CCN(C2CCc3ccccc3C2Nc2ncnc3[nH]c(C4CC4)cc23)CC1 (stereo not drawn) [EP-0040665] | 9.86 µM | 25.0 µM | 3.7% |
| Fc1ccc2c(c1)CC[C@@H](N1C[C@@H]3COC[C@H]3C1)[C@@H]2Nc1ncnc2[nH]c(C(F)(F)F)cc12 [EP-0040696] | 23.4 µM | 25.0 µM | 14.9% |
| c1ccc2c(c1)CC[C@@H](C1CCOCC1)[C@@H]2Nc1ncnc2[nH]c(C3CC3)cc12 [EP-0040727] | 2.85 µM | 25.0 µM | 7.7% |
| c1ccc2c(c1)OC[C@H](C1CCOCC1)[C@H]2Nc1ncnc2[nH]c(C3CC3)cc12 [EP-0040728] | 9.4 µM | 25.0 µM | 3.7% |
| c1ccc2c(c1)OC[C@@H](C1CCOCC1)[C@H]2Nc1ncnc2[nH]c(C3CC3)cc12 [EP-0040730] | > 25 µM | 25.0 µM | 8.3% |
| c1ccc2c(c1)OC[C@H](C1CCOCC1)[C@@H]2Nc1ncnc2[nH]c(C3CC3)cc12 [EP-0040731] | > 25 µM | 25.0 µM | 2.7% |
| c1ccc2c(c1)CC[C@@H](N1C[C@H]3COC[C@@H]3C1)[C@@H]2Nc1ncnc2[nH]c(C3CC3)cc12 [EP-0040767] | > 25 µM | 25.0 µM | 7.9% |
| COC1CN([C@@H]2CCc3ccccc3[C@H]2Nc2ncnc3[nH]c(C(F)(F)F)cc23)C1 [EP-0040858] | ≥ 28.8 µM | 25.0 µM | 6.6% |
| C[C@@H]1CN([C@H]2COc3ccccc3[C@@H]2Nc2ncnc3[nH]c(C(F)(F)F)cc23)C[C@H](C)O1 [EP-0040942] | > 25 µM | 25.0 µM | 4.7% |
